According to US20080311036A1, “Imaging of Neural and Organ Injury or Damage” (UNIVERSITY OF FLORIDA RESEARCH FOUNDATION, INC., priority 2005, published 2008):
pIC50: −log10 of the molar value.

Legend:
[1] = known calpain inhibitors; cited from earlier work
[2] = in vivo half-life after intravenous administration
Method: To enhance the brain residency of the selected “inhibitor-ligands,” a pro-drug strategy that promotes the “trapping” of their precursors in the CNS are evaluated (Prokai et al., 2000). […] The following scheme outlines the method employed to the selected inhibitor-ligands (see FIG. 5).

[3] = test system: calpain; assay: in situ calpain inhibition in SH-SY5Y cells challenged with maitotoxin, SBDP145 by Western blot; format: cell-based; details: SH-SY5Y neuroblastoma cells, maitotoxin 0.3 nM, read-out: IC50 for blocking SBDP145
Method: The synthesized promoiety-conjugates Compound 1 and Compound 2, will be tested for oxidation stability at 37° C. in buffer (pH 7.4), rat plasma and rat-brain homogenate to probe the kinetics of the expected conversion to the pyridinium-ion intermediates. […] Compound 1 for calpain and Compound 2 will be further tested in in situ calpain and caspase inhibition analysis in cell culture. This may be important since both proteases are intracellular, so for the in vivo uses of the inhibitor-ligands, compounds must have the ability to penetrate cells and retain potency while inside cells. We will use neuroblastoma cell line SH-SY5Y, which can be manipulated to produce calpain-activation and necrosis with a neurotoxin maitotoxin (0.3 nM, Calbiochem) or caspase activation and apoptosis with calcium-chelator EGTA (5 mM) as we have shown before (McGinnis, Wang, Gnegy, (1999) J. Neurochem. 72, 1853-1863). Importantly the protease-produced spectrin breakdown products SBDP150 and SBDP145 (with maitotoxin) and SBDP150 and SBDP120 (with EGTA) are readily produced and quantitatively detected by Western blot analysis, which parallel the formation of SBDP's in brain injury in vivo. Prototype calpain inhibitor SJA6017 blocked SBDP145 at IC50 of 0.2 μM, while caspase inhibitor z-D-DCB blocks SBDP120 at IC50 of 5 μM. […]

| Compound | crossing of cell membranes [1] | in vivo half-life [2] | pIC50 [3] |
| --- | --- | --- | --- |
| CC(=O)N[C@@H](CC(C)C)C(=O)N[C@@H](CC(C)C)C(=O)N[C@H](C=O)CCCNC(=N)N [leupeptin, N-acetyl-Leu-Leu-argininal] | cross cell membranes only poorly | – | – |
| CC(C)C[C@@H](C=O)NC(=O)[C@@H](NS(=O)(=O)c1ccc(F)cc1)C(C)C [SJA-6017] | – | ca. 11 min | 6.70 |
